Here are results for seven compounds from patent publication US8067468B2, “L-carnitine and alkanoyl L-carnitine phytates and process for preparing the same” (priority 2009, dated 2011).

Where a name gives a salt, the structure may show the parent alone.

Data set [1] in a line: Odor of the dried product (sign of decomposition / acid smell). The following applies: dried solid product. It counts as physicochemical. The method, then:
According to one embodiment, 96.7 grams (0.6 mole) of L-carnitine inner salt (C7H15NO3, molecular weight 161.20) was added to a 50% aqueous solution (having a pH value <1) of 66.0 grams (0.1 mole) phytic acid and stirred at room temperature resulting in an exothermic reaction. […] According to one embodiment, the solution (having a pH value of about 4) was further stirred 20 minutes. […] According to one embodiment, the residue is further dried in a vacuum oven at 50° C. to obtain 166.2 grams of white solid powder with an almost quantitative yield (i.e., the white solid powder contains 2% H2O).
According to one embodiment, 122.09 grams (0.6 mole) of acetyl L-carnitine inner salt (C9H17NO4, molecular weight 203.24) was added to a 50% aqueous solution (having a pH value <1) of 66.0 grams (0.1 mole) phytic acid and stirred at room temperature resulting in an exothermic reaction. […] According to one embodiment, the residue is further dried in a vacuum oven at 50° C. to obtain 192.7 grams of white solid powder with an almost quantitative yield (i.e., the white solid powder contains 2% H2O). […]

A short description of data set [2]: pH value of the product (c=1% H2O). It counts as physicochemical. How it is done:
According to one embodiment, the solution (having a pH value of about 4) was further stirred 20 minutes. According to one embodiment, the solution was concentrated on an evaporator under a vacuum at 50° C. According to one embodiment, the residue was repeatedly (3 times) taken up using anhydrous ethanol under a vacuum to dry the solution as much as possible.

For data set [3] the following is noted: cited from earlier work.
The test system of data set [4] is human mammary cancer cell line. The following applies: incubated with a human mammary cancer cell line; cited from earlier work.
The conditions of data set [5]: post-administration, independent of route; cited from earlier work.
Data set [6] deals with mice. Nature of the data set: Single dose oral acute toxicity study (LD50). It counts as in vivo. The method, then:
The single dose oral acute toxicity of L-carnitine phytate (in a 6:1 mole ratio) was evaluated in mice. Five dosages (25, 20, 15, 10, and 5 g/Kg) were orally administrated to five groups of mice in which each group had five male and five female mice. After dosing, the five groups of mice were observed and daily records (for 14 days) were made of their general conditions, toxic response, and deaths. All of the dead mice were necropsied, in which each of the body's thorace and abdomen were opened, and each heart, liver, spleen, lung, kidney, and intestine were examined and recorded.

Take “Propinoyl L-Carnitine Phytate (in a 6:1 mole ratio) [Example Embodiment 4]”: the odor result in data set [1] is recorded as “odorless”. For the same compound, the pH value in data set [2] is reported as 4.

In the case of `CC(C)C(=O)O[C@H](CC(=O)O)C[N+](C)(C)C` [Example Embodiment 6, Isobutyryl L-Carnitine Phytate (in a 6:1 mole ratio)], the pH value in data set [2] is 4.

`CC(=O)O[C@H](CC(=O)O)C[N+](C)(C)C` [Example Embodiment 3, Acetyl L-Carnitine Phytate (in a 6:1 mole ratio)]: the odor result in data set [1] is on record as “odorless”. The pH value in data set [2] amounted to 4.

Take `C[N+](C)(C)C[C@H](O)CC(=O)[O-]` [L-carnitine's inner salt, L-carnitine inner salt]: the pKa value in data set [3] is on record as 3.8.

On to “Butyryl L-Carnitine Phytate (in a 6:1 mole ratio) [Example Embodiment 5]”, for which, in data set [2], the pH value was 4.

For `O=P(O)(O)O[C@H]1[C@H](OP(=O)(O)O)[C@@H](OP(=O)(O)O)[C@H](OP(=O)(O)O)[C@@H](OP(=O)(O)O)[C@H]1OP(=O)(O)O` [phytic acid, Phytic acid], the “time of first detection of IP6 in cells” value in data set [4] is reported as “as early as one minute post-incubation”. Further, in data set [5], the “time to reach targeted tumor tissue” value is “as early as one hour post-administration”. For the same compound, in data set [3], the “pKa of the remaining three very weakly acidic sites” value is listed as “greater than 10”. In data set [3] (first dissociation proton of each phosphate group), the “pKa of the six strongly acidic proton dissociation sites” value was about 1.5.

Consider “L-Carnitine Phytate (in a 6:1 mole ratio) [Example Embodiment 2]”, for which the “necropsy findings in hearts, livers, spleens, lungs, kidneys and intestines” value in data set [6] (single oral dose 5-25 g/Kg, dead mice necropsied) was “not any obvious abnormalities observed”. For the same compound, the “acute oral LD50” value in data set [6] (single oral dose, observed for 14 days) came out at 14860 mg/kg.
